# Measured values: patent US12162893B2 (Erasca, Inc., priority 2020, dated 2024)
# Molecular target: T1, mutant G12C K-RAS (Homo sapiens, UniProt P01116, G12C)
# T1 construct: made in house; host or cells: E. coli BL21
# Experiment: covalent adduct formation (CAF) with mutant G12C K-RAS
# Format: binding
# Conditions: Table 6; 10 μM, 1 h
# Experimental: Embodiments disclosed herein are further illustrated by the following examples in Tables 1-4 and the Examples hereinbelow. The Tables indicate the compound number, structure, the observed mass spectral molecular weight peak, and covalent adduct formation (CAF) with a mutant G12C K-RAS after 60 minutes at a concentration of 10 micromolar.
row,SMILES,"% CAF @ 10 μM,1 h [%]"
1,"C=CC(=O)N1C[C@H](C)N(c2nc(=O)n3c4c(c(-c5c(F)cccc5C(F)F)ccc24)OCC3)C[C@H]1C [Example 200, 7-((2S,5R)-4-acryloyl-2,5-dimethylpiperazin-l-yl)-10-(2-(difluoromethyl)-6-fluorophenyl)-2,3-dihydro-5H-1,4|oxazino[2,3,4-ij]quinazolin-5-one]",0
2,"C=CC(=O)N1C[C@H](C)N(c2nc(=O)n3c4c(c(-c5c(F)ccc6[nH]cnc56)ccc24)OCC3)C[C@H]1C [Example 201, 7-((2S,5R)-4-acryloyl-2,5-dimethylpiperazin-1-yl)-10-(5-fluoro-1H-benzo[d]imidazol-4-yl)-2,3-dihydro-5H-[1,4]oxazino[2,3,4-ij]quinazolin-5-one]",0
3,"C=CC(=O)N1C[C@H](C)N(c2nc(=O)n3c4c(c(-c5ccc(F)cc5F)c(Cl)cc24)OC[C@@H]3CN2CCOCC2)C[C@H]1C [Example 203, (3S)-7-((2S,5R)-4-acryloyl-2,5-dimethylpiperazin-1-yl)-9-chloro-10-(2,4-difluorophenyl)-3-(morpholinomethyl)-2H-[1,4]oxazino[2,3,4-ij]quinazolin-5(3H)-one]",84.3
4,"C=CC(=O)N1C[C@H](C)N(c2nc(=O)n3c4c(c(-c5ccc(F)cc5F)c(Cl)cc24)OC[C@H]3CN2CCOCC2)C[C@H]1C [Example 204, (3R)-7-((2S,5R)-4-acryloyl-2,5-dimethylpiperazin-1-yl)-9-chloro-10-(2,4-difluorophenyl)-3-(morpholinomethyl)-2H-[1,4]oxazino[2,3,4-ij]quinazolin-5(3H)-one]",82
5,"C=CC(=O)N1C[C@H](C)N(c2nc(=O)n3c4c(c(-c5cc(Cl)ccc5F)c(Cl)cc24)OC[C@H]3CN2CCC(F)(F)C2)C[C@H]1C [Example 206, (3R)-7-((2S,5R)-4-acryloyl-2,5-dimethylpiperazin-1-yl)-9-chloro-10-(5-chloro-2-fluorophenyl)-3-((3,3-difluoropyrrolidin-1-yl)methyl)-2,3-dihydro-5H-[1,4]oxazino[2,3,4-ij]quinazolin-5-one]",10.7

# Next, values leading:
row,"% CAF @ 10 μM,1 h [%]",SMILES
1,77.4,"C=CC(=O)N1C[C@H](C)N(c2nc(=O)n3c4c(c(-c5cc(Cl)ccc5F)c(Cl)cc24)OC[C@@H]3CN2CCOCC2)C[C@H]1C [Example 211, (3S)-7-((2S,5R)-4-acryloyl-2,5-dimethylpiperazin-1-yl)-9-chloro-10-(5-chloro-2-fluorophenyl)-3-(morpholinomethyl)-2,3-dihydro-5H-[1,4]oxazino[2,3,4-ij]quinazolin-5-one]"
2,59.8,"C=CC(=O)N1C[C@H](C)N(c2nc(=O)n3c4c(c(-c5cc(Cl)ccc5F)c(Cl)cc24)OC[C@H]3CN2CCOCC2)C[C@H]1C [Example 212, (3R)-7-((2S,5R)-4-acryloyl-2,5-dimethylpiperazin-1-yl)-9-chloro-10-(5-chloro-2-fluorophenyl)-3-(morpholinomethyl)-2H-[1,4]oxazino[2,3,4-ij]quinazolin-5(3H)-one]"
3,90.6,"C=CC(=O)N1C[C@H](C)N(c2nc(=O)n3c4c(c(-c5ccc(F)cc5F)c(Cl)cc24)OC[C@H]3CCN2CCOCC2)C[C@H]1C [Example 213, (3R)-7-((2S,5R)-4-acryloyl-2,5-dimethylpiperazin-1-yl)-9-chloro-10-(2,4-difluorophenyl)-3-(2-morpholinoethyl)-2H-[1,4]oxazino[2,3,4-ij]quinazolin-5(3H)-one]"
4,60.9,"C=CC(=O)N1C[C@H](C)N(c2nc(=O)n3c4c(c(-c5cc(Cl)ccc5F)c(Cl)cc24)OC[C@@H]3CN2CCC(F)(F)C2)C[C@H]1C [Example 214, (3S)-7-((2S,5R)-4-acryloyl 2,5-dimethylpiperazin-1-yl)-9-chloro-10-(5-chloro-2-fluorophenyl)-3-((3,3-difluoropyrrolidin-1-yl)methyl)-2,3-dihydro-5H [1,4]oxazino[2,3,4-ij]quinazolin-5-one]"
